Key:
[1] = system: cataracts in rats; assay: Prevention or retardation of cataracts in galactose-fed rats; format: in vivo, rat; details: for suppression of the formation of nuclear cataracts: 30 days; for % of Total Eyes, + (vacuole) / % of Total Eyes, - (Normal) / % of Total Eyes, N (nuclear cataract) / % of Total Eyes, S (snowflake) / Number of Eyes Observed, + (vacuole) / Number of Eyes Observed, - (Normal) / Number of Eyes Observed, N (nuclear cataract) / Number of Eyes Observed, S (snowflake) / Number of Eyes Observed, ±: 30% galactose diet, A,C,E 0.0025%, B,D 0.01%
Method in brief: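 Rats given test compound mixed into diet (by % of total feed weight; 0.01% designed to supply 20 mg/kg/day) ad libitum for thirty days after a two-day chow acclimatization, twelve animals per treatment. Eyes examined by handheld ophthalmoscope and/or penlight and each eye graded.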

[2] = system: aldose reductase; assay: Aldose reductase inhibition / potency (general statement)

C[S+]([O-])c1ccc2c(c1)C1(CCO2)NC(=O)NC1=O (centres unmarked) [D, spiro-(6-methylsulfinylchroman-4,4'-imidazolidine)-2',5'-dione]
suppression of the formation of nuclear cataracts ([1]; 0.0025% in diet): greater than 80% | time to vacuole formation, versus galactose control ([1]; 0.01% in diet): different (p<0.05) from control | suppression of the formation of nuclear cataracts ([1]; 0.01% in diet): greater than 80% | % of Total Eyes, + (vacuole) ([1]; Study Day 2): 0% | % of Total Eyes, - (Normal) ([1]; Study Day 2): 100.0% | % of Total Eyes, N (nuclear cataract) ([1]; Study Day 2): 0% | % of Total Eyes, S (snowflake) ([1]; Study Day 2): 0% | Number of Eyes Observed, + (vacuole) ([1]; Study Day 2): 0 eyes | Number of Eyes Observed, - (Normal) ([1]; Study Day 2): 24 eyes | Number of Eyes Observed, N (nuclear cataract) ([1]; Study Day 2): 0 eyes | Number of Eyes Observed, S (snowflake) ([1]; Study Day 2): 0 eyes | Number of Eyes Observed, ± ([1]; Study Day 2): 0 eyes | % of Total Eyes, + (vacuole) ([1]; Study Day 3): 0% | % of Total Eyes, - (Normal) ([1]; Study Day 3): 91.7% | % of Total Eyes, N (nuclear cataract) ([1]; Study Day 3): 0% | % of Total Eyes, S (snowflake) ([1]; Study Day 3): 0% | Number of Eyes Observed, + (vacuole) ([1]; Study Day 3): 0 eyes | Number of Eyes Observed, - (Normal) ([1]; Study Day 3): 22 eyes | Number of Eyes Observed, N (nuclear cataract) ([1]; Study Day 3): 0 eyes | Number of Eyes Observed, S (snowflake) ([1]; Study Day 3): 0 eyes | Number of Eyes Observed, ± ([1]; Study Day 3): 2 eyes | % of Total Eyes, + (vacuole) ([1]; Study Day 4): 16.7% | % of Total Eyes, - (Normal) ([1]; Study Day 4): 75.0% | % of Total Eyes, N (nuclear cataract) ([1]; Study Day 4): 0% | % of Total Eyes, S (snowflake) ([1]; Study Day 4): 0% | Number of Eyes Observed, + (vacuole) ([1]; Study Day 4): 4 eyes | Number of Eyes Observed, - (Normal) ([1]; Study Day 4): 18 eyes | Number of Eyes Observed, N (nuclear cataract) ([1]; Study Day 4): 0 eyes | Number of Eyes Observed, S (snowflake) ([1]; Study Day 4): 0 eyes | Number of Eyes Observed, ± ([1]; Study Day 4): 2 eyes | % of Total Eyes, + (vacuole) ([1]; Study Day 5): 33.3% | % of Total Eyes, - (Normal) ([1]; Study Day 5): 33.3% | % of Total Eyes, N (nuclear cataract) ([1]; Study Day 5): 0% | % of Total Eyes, S (snowflake) ([1]; Study Day 5): 0% | Number of Eyes Observed, + (vacuole) ([1]; Study Day 5): 8 eyes | Number of Eyes Observed, - (Normal) ([1]; Study Day 5): 8 eyes | Number of Eyes Observed, N (nuclear cataract) ([1]; Study Day 5): 0 eyes | Number of Eyes Observed, S (snowflake) ([1]; Study Day 5): 0 eyes | Number of Eyes Observed, ± ([1]; Study Day 5): 8 eyes | % of Total Eyes, + (vacuole) ([1]; Study Day 6): 41.6% | % of Total Eyes, - (Normal) ([1]; Study Day 6): 25.0% | % of Total Eyes, N (nuclear cataract) ([1]; Study Day 6): 0% | % of Total Eyes, S (snowflake) ([1]; Study Day 6): 0% | Number of Eyes Observed, + (vacuole) ([1]; Study Day 6): 10 eyes | Number of Eyes Observed, - (Normal) ([1]; Study Day 6): 6 eyes | Number of Eyes Observed, N (nuclear cataract) ([1]; Study Day 6): 0 eyes | Number of Eyes Observed, S (snowflake) ([1]; Study Day 6): 0 eyes | Number of Eyes Observed, ± ([1]; Study Day 6): 8 eyes | % of Total Eyes, + (vacuole) ([1]; Study Day 8): 50.0% | % of Total Eyes, - (Normal) ([1]; Study Day 8): 16.7% | % of Total Eyes, N (nuclear cataract) ([1]; Study Day 8): 0% | % of Total Eyes, S (snowflake) ([1]; Study Day 8): 8.3% | Number of Eyes Observed, + (vacuole) ([1]; Study Day 8): 12 eyes | Number of Eyes Observed, - (Normal) ([1]; Study Day 8): 4 eyes | Number of Eyes Observed, N (nuclear cataract) ([1]; Study Day 8): 0 eyes | Number of Eyes Observed, S (snowflake) ([1]; Study Day 8): 2 eyes | Number of Eyes Observed, ± ([1]; Study Day 8): 6 eyes | % of Total Eyes, + (vacuole) ([1]; Study Day 10): 58.4% | % of Total Eyes, - (Normal) ([1]; Study Day 10): 8.3% | % of Total Eyes, N (nuclear cataract) ([1]; Study Day 10): 0% | % of Total Eyes, S (snowflake) ([1]; Study Day 10): 16.7% | Number of Eyes Observed, + (vacuole) ([1]; Study Day 10): 14 eyes | Number of Eyes Observed, - (Normal) ([1]; Study Day 10): 2 eyes | Number of Eyes Observed, N (nuclear cataract) ([1]; Study Day 10): 0 eyes | Number of Eyes Observed, S (snowflake) ([1]; Study Day 10): 4 eyes | Number of Eyes Observed, ± ([1]; Study Day 10): 4 eyes | % of Total Eyes, + (vacuole) ([1]; Study Day 12): 62.5% | % of Total Eyes, - (Normal) ([1]; Study Day 12): 0% | % of Total Eyes, N (nuclear cataract) ([1]; Study Day 12): 0% | % of Total Eyes, S (snowflake) ([1]; Study Day 12): 20.8% | Number of Eyes Observed, + (vacuole) ([1]; Study Day 12): 15 eyes | Number of Eyes Observed, - (Normal) ([1]; Study Day 12): 0 eyes | Number of Eyes Observed, N (nuclear cataract) ([1]; Study Day 12): 0 eyes | Number of Eyes Observed, S (snowflake) ([1]; Study Day 12): 5 eyes | Number of Eyes Observed, ± ([1]; Study Day 12): 4 eyes | % of Total Eyes, + (vacuole) ([1]; Study Day 14): 62.5% | % of Total Eyes, - (Normal) ([1]; Study Day 14): 0% | % of Total Eyes, N (nuclear cataract) ([1]; Study Day 14): 0% | % of Total Eyes, S (snowflake) ([1]; Study Day 14): 29.2% | Number of Eyes Observed, + (vacuole) ([1]; Study Day 14): 15 eyes | Number of Eyes Observed, - (Normal) ([1]; Study Day 14): 0 eyes | Number of Eyes Observed, N (nuclear cataract) ([1]; Study Day 14): 0 eyes | Number of Eyes Observed, S (snowflake) ([1]; Study Day 14): 7 eyes | Number of Eyes Observed, ± ([1]; Study Day 14): 2 eyes | % of Total Eyes, + (vacuole) ([1]; Study Day 16): 45.8% | % of Total Eyes, - (Normal) ([1]; Study Day 16): 0% | % of Total Eyes, N (nuclear cataract) ([1]; Study Day 16): 0% | % of Total Eyes, S (snowflake) ([1]; Study Day 16): 37.5% | Number of Eyes Observed, + (vacuole) ([1]; Study Day 16): 13 eyes | Number of Eyes Observed, - (Normal) ([1]; Study Day 16): 0 eyes | Number of Eyes Observed, N (nuclear cataract) ([1]; Study Day 16): 0 eyes | Number of Eyes Observed, S (snowflake) ([1]; Study Day 16): 9 eyes | Number of Eyes Observed, ± ([1]; Study Day 16): 2 eyes | % of Total Eyes, + (vacuole) ([1]; Study Day 18): 54.2% | % of Total Eyes, - (Normal) ([1]; Study Day 18): 0% | % of Total Eyes, N (nuclear cataract) ([1]; Study Day 18): 0% | % of Total Eyes, S (snowflake) ([1]; Study Day 18): 37.5% | Number of Eyes Observed, + (vacuole) ([1]; Study Day 18): 13 eyes | Number of Eyes Observed, - (Normal) ([1]; Study Day 18): 0 eyes | Number of Eyes Observed, N (nuclear cataract) ([1]; Study Day 18): 0 eyes | Number of Eyes Observed, S (snowflake) ([1]; Study Day 18): 9 eyes | Number of Eyes Observed, ± ([1]; Study Day 18): 2 eyes | % of Total Eyes, + (vacuole) ([1]; Study Day 20): 29.2% | % of Total Eyes, - (Normal) ([1]; Study Day 20): 0% | % of Total Eyes, N (nuclear cataract) ([1]; Study Day 20): 4.2% | % of Total Eyes, S (snowflake) ([1]; Study Day 20): 58.4% | Number of Eyes Observed, + (vacuole) ([1]; Study Day 20): 7 eyes | Number of Eyes Observed, - (Normal) ([1]; Study Day 20): 0 eyes | Number of Eyes Observed, N (nuclear cataract) ([1]; Study Day 20): 1 eyes | Number of Eyes Observed, S (snowflake) ([1]; Study Day 20): 14 eyes | Number of Eyes Observed, ± ([1]; Study Day 20): 2 eyes | % of Total Eyes, + (vacuole) ([1]; Study Day 22): 20.8% | % of Total Eyes, - (Normal) ([1]; Study Day 22): 0% | % of Total Eyes, N (nuclear cataract) ([1]; Study Day 22): 8.3% | % of Total Eyes, S (snowflake) ([1]; Study Day 22): 70.8% | Number of Eyes Observed, + (vacuole) ([1]; Study Day 22): 5 eyes | Number of Eyes Observed, - (Normal) ([1]; Study Day 22): 0 eyes | Number of Eyes Observed, N (nuclear cataract) ([1]; Study Day 22): 2 eyes | Number of Eyes Observed, S (snowflake) ([1]; Study Day 22): 17 eyes | Number of Eyes Observed, ± ([1]; Study Day 22): 0 eyes | % of Total Eyes, + (vacuole) ([1]; Study Day 24): 20.8% | % of Total Eyes, - (Normal) ([1]; Study Day 24): 0% | % of Total Eyes, N (nuclear cataract) ([1]; Study Day 24): 8.3% | % of Total Eyes, S (snowflake) ([1]; Study Day 24): 70.8% | Number of Eyes Observed, + (vacuole) ([1]; Study Day 24): 5 eyes | Number of Eyes Observed, - (Normal) ([1]; Study Day 24): 0 eyes | Number of Eyes Observed, N (nuclear cataract) ([1]; Study Day 24): 2 eyes | Number of Eyes Observed, S (snowflake) ([1]; Study Day 24): 17 eyes | Number of Eyes Observed, ± ([1]; Study Day 24): 0 eyes | % of Total Eyes, + (vacuole) ([1]; Study Day 26): 16.7% | % of Total Eyes, - (Normal) ([1]; Study Day 26): 0% | % of Total Eyes, N (nuclear cataract) ([1]; Study Day 26): 8.3% | % of Total Eyes, S (snowflake) ([1]; Study Day 26): 75.0% | Number of Eyes Observed, + (vacuole) ([1]; Study Day 26): 4 eyes | Number of Eyes Observed, - (Normal) ([1]; Study Day 26): 0 eyes | Number of Eyes Observed, N (nuclear cataract) ([1]; Study Day 26): 2 eyes | Number of Eyes Observed, S (snowflake) ([1]; Study Day 26): 18 eyes | Number of Eyes Observed, ± ([1]; Study Day 26): 0 eyes | % of Total Eyes, + (vacuole) ([1]; Study Day 28): 16.7% | % of Total Eyes, - (Normal) ([1]; Study Day 28): 0% | % of Total Eyes, N (nuclear cataract) ([1]; Study Day 28): 16.7% | % of Total Eyes, S (snowflake) ([1]; Study Day 28): 66.7% | Number of Eyes Observed, + (vacuole) ([1]; Study Day 28): 4 eyes | Number of Eyes Observed, - (Normal) ([1]; Study Day 28): 0 eyes | Number of Eyes Observed, N (nuclear cataract) ([1]; Study Day 28): 4 eyes | Number of Eyes Observed, S (snowflake) ([1]; Study Day 28): 16 eyes | Number of Eyes Observed, ± ([1]; Study Day 28): 0 eyes | % of Total Eyes, + (vacuole) ([1]; Study Day 30): 4.2% | % of Total Eyes, - (Normal) ([1]; Study Day 30): 0% | % of Total Eyes, N (nuclear cataract) ([1]; Study Day 30): 16.7% | % of Total Eyes, S (snowflake) ([1]; Study Day 30): 79.2% | Number of Eyes Observed, + (vacuole) ([1]; Study Day 30): 1 eyes | Number of Eyes Observed, - (Normal) ([1]; Study Day 30): 0 eyes | Number of Eyes Observed, N (nuclear cataract) ([1]; Study Day 30): 4 eyes | Number of Eyes Observed, S (snowflake) ([1]; Study Day 30): 19 eyes | Number of Eyes Observed, ± ([1]; Study Day 30): 0 eyes | time to vacuole formation, 0.0025% methylthio versus 0.01% sulfinyl ([1]; methylthio 0.0025%, sulfinyl 0.01% in diet): not different from each other | activity relative to the methylthio derivative [2]: lacked the activity of the methylthio derivative

Source: patent US4464385A, “Treatment of diabetic complications with hydantoins” (Alcon Laboratories, Inc., priority 1982, dated 1984)
